Patent US6642209B1, “Use of adenosine compounds to alleviate or normalize pathologically hyperexcited sensory nerve function in a human patient” (priority 1990, dated 2003)
“Also recorded” adds a separate entry of the source.

Legend:
[1] = Anesthesia score chart comparing anesthetic agents for the four components of anesthesia (Table 1); set-up: key: 0 no effect; 1 minimal; 2 mostly; 3 maximal
[2] = tested on: dogs; test: Oxygen transport and regional tissue oxygenation during graded induced hypotension; assay type: in vivo, dog
Description: Arterial and pulmonary artery (Swan-Ganz) catheters were placed via a femoral cut down. […] Another PO2 sensor probe was placed on the surface of the liver, kidney, subcutaneous, and muscle of the chest wall through a small skin incision. Referring to FIG. 6, the dogs were divided into three groups: (a) hemorrhagic (n=7), (b) isoflurane (n=8), and (c) ATP (n=8). […] The following were measured and/or calculated: […] The data were analyzed using ANOVA with the Bonferroni t-test and unpaired t-test where appropriate, accepting p<0.05 as significant.

[3] = tested on: rabbits; test: Hypothermia induced under adenosine or ATP infusion; assay type: in vivo, rabbit; conditions: external cooling
Description: The hypothermic and rewarming effects of an adenosine compound are tested in experimental animals prepared similarly as in the rabbit model described herein to test for anesthetic effects, except that the body temperature is allowed to fall. In animal studies (rabbit) where the room has a temperature of approximately 22° C., the body temperature will fall from a norm of about 39° C. to about 32° C. in about three hours. If the animal is cooled further with ice bags, a temperature of approximately 22° C. can be achieved in three hours without cardiovascular decompensation. Rewarming is done with the aid of a thermal blanket and heat lamp. The effective dosages of adenosine compound ranged from about 100 μg/kg/min to about 5000 μg/kg/min.
Referring to FIG. 7, the body temperature versus time plots are shown for eight different experiments. In Run 1, adenosine 500 μg/kg/min was administered intravenously to rabbits for six hours. The administration was then stopped and the body temperatures were allowed to recover.
In Run 2, ATP 500 μg/kg/min was administered intravenously for six hours. At that time, the body temperature was 31.5° C. The animal's body temperature was allowed to recover by applying external heating for four hours when (at the arrow) the external heating was removed and the temperature was allowed to fall. The body temperature again fell.
In Run 3, ATP was administered intravenously. The body temperature stabilized after ten hours at 32.5° C.
In Runs 4, 5, and 6, adenosine was administered to rabbits until the body temperature reached a constant value. In Run 4, after five hours, the body temperature stabilized at 33° C. In Run 6, after six hours, the temperature stabilized at 31.5° C.
In Run 7, five unmedicated New Zealand rabbits were anesthetized with halothane in O2 using a face mask. The ear vein was cannulated with a 22 gauge plastic catheter for drug infusion. 500 μg/kg/min to 5500 μ/kg/min adenosine was administered IV. Body temperature was monitored through a rectal thermometer. The body temperature started at approximately 38.5° C. After the application of ice bags, the temperature dropped approximately 5.5° C./hr until a minimum body temperature of approximately 22° C. was achieved.
The ice bags were removed and external heating applied. The body temperature of all rabbits returned to normal, and the rabbits were apparently normal.
In a comparison, in Run 8, six rabbits were anesthetized with isofluane and external cooling applied.

[4] = tested on: experimental animals; conditions: cited from earlier work

SMILES: FC(F)OC(Cl)C(F)(F)F (centres unmarked) [isoflurane]
- Antinociception (analgesia, less pain perception) ([1]; Anesthesia Score 0 to 3): 1
- Inhibition of Stress (autonomic responses: blood pressure, heart rate; endocrine and metabolic responses) ([1]; Anesthesia Score 0 to 3): 1
- Muscle Relaxation ([1]; Anesthesia Score 0 to 3): 1
- Sleep (unconsciousness, amnesia, sedation) ([1]; Anesthesia Score 0 to 3): 3
- TOTALS of Anesthesia Score ([1]; sum of the four components): 6
- O2 supply/demand ratio ([2]; graded hypotension to MAP 30 mmHg): reduced O2 supply/demand ratio
- O2 delivery (DO2) ([2]; graded hypotension, higher dosage): seriously depressed DO2
- survival during body temperature lowering ([3]; Run 7 (five rabbits), Run 8 (six rabbits)): one rabbit expired due to ventricular fibrillation; also recorded: another expired due to pulmonary edema
- shivering during body temperature lowering ([3]; Run 7, Run 8): shiver violently
- fatal to effective anesthetic ratio ([4]; in vivo): 3.02±0.13
- safety range relative to halothane ([4]; other reports): about 1.88 times
